From US20250177448A1, “NEW USE OF PEG-PHOSPHOLIPID MOLECULES” (ICOAT MEDICAL AB, priority 2022, published 2025)

Assays:
RBCs = test: Complement mediated lysis of RBCs coated with PEG-phospholipid; format: cell-based, human; conditions: ABO missmatched donors, vs non-treated controls, 37° C. 20 min
Method: In order to investigate if the PEG-phospholipid was able to protect against complement mediated lysis, RBCs were used from 13 different donors who were typed for Rh complex and ABO antigens. RBCs were isolated and preincubated with PEG-phospholipid at varying concentrations, free PEG or PBS as described above. Cells were then washed (and the supernatant stored for analysis) with PBS (800 g×5 min, RT) and incubated with human serum (where the complement system is active) for 20 minutes at 37° C. They were then spun down again (800 g×5 min) and the supernatant was collected for analysis of hemolysis. The RBCs were analyzed for complement fixation (cells were incubated for 10 min with a
FITC-labelled anti-C3c antibody). RBCs were resuspended with PBS (1 mL) for flow cytometry measurements. […] Post analysis processing was carried out in FlowJo (BD). The supernatant was analyzed on a variable wavelength detection plate reader, Synergy HTX, for the absorbance at 540 nm. RBCs, which were lysed via osmotic stress, were run in parallel as positive controls. The background absorbance at 540 nm from PBS containing no cells was subtracted and the difference in absorbance between cells coated with PEG-phospholipid or PBS was then calculated.

[1] = test system: HLA-ABC (antibody G46-2.6); test: Anti-HLA antibody binding to PEG-phospholipid treated PBMCs, flow cytometry; format: cell-based; conditions: freshly isolated human PBMC
Description: (§1) To test the efficacy of the PEG-phospholipid (SUNBRIGHT®) PP-050CN, N-(methylpolyoxyethylene oxycarbonyl)-1,2-dipalmitoyl-sn-glycero-3-phosphoethanolamine, sodium salt, NOF Corp., Japan) to block binding of anti-HLA antibodies to HLA antigens, similar to in a potential clinical setting, we used human PBMCs from healthy donors to block the HLA antigens.
(§2) • FITC Mouse Anti-Human HLA-ABC; Monoclonal (G46-2.6) (BD Pharmingen) cat no. 555552 • Biotin Mouse Anti-human HLA Class I antibody [W6/32] (Abcam) cat no. ab110665 • PE-streptavidin (BD Pharmingen) cat no. 554061
(§3) PBMC was isolated from whole blood by using Cytiva™ Ficoll-Paque™ PLUS Media (Cytiva 17-1440-02) following standard protocol. In brief, whole blood was diluted in equal volume of PBS and carefully layered on top of Ficoll paque and centrifuged at 800×g for 25 mins. A cloudy layer was separated from the top of Ficoll and washed twice again with PBS.
(§4) The cells were stained with FITC mouse anti-human HLA-ABC monoclonal antibodies and biotin mouse anti-human HLA class | antibody [W6/32] (Abcam) followed by PE-streptavidin. The stained cells were analyzed by Beckman coulter cytoflex S (Biovis, facility, IGP, Rudbeck laboratory).

[2] = test system: HLA Class I (antibody W6/32); test: as above; format: cell-based; conditions: freshly isolated human PBMC
Description: as §1, §2, §3, §4

N-(methylpolyoxyethylene oxycarbonyl)-1,2-dipalmitoyl-sn-glycero-3-phosphoethanolamine [PEG-phospholipid]
complement-mediated RBC lysis (RBCs): reduced complement-mediated RBC lysis in a dose dependent manner | binding of anti-HLA-ABC G46-2.6 to PBMCs [1]: robust inhibition | binding of anti-HLA-ABC G46-2.6 to PBMCs ([1]; listed as PEG-phospholipids): inhibited | binding of anti-HLA class I antibodies W6/32 to PBMCs [2]: robust inhibition | binding of anti-HLA class I antibodies W6/32 to PBMCs ([2]; listed as PEG-phospholipids): inhibited
